The nature of this test: Blocker Index (BI), expert graders, malodorous fabric swatch treated with test material. The source says: Blocker materials suitable for use in consumer products of the present invention are chosen for their ability to decrease malodor, while not interfering with perception of a fragrance. Material selection is done by assigning two indices to a test sample material from two reference scales in order to rank odor strengths. The two reference scales are the Fragrance Fidelity Index (FFI) scale and the Blocker Index (BI) scale. The FFI ranks the ability of the test sample material to impart a perceivable odor which could cause interference when combined with another fragrance and the BI ranks the ability of the test sample material to reduce malodor perception. The two methods for assigning the indices to a test sample on the FFI and the BI reference scales are given below.
The first step in the method for assigning a BI to a test sample material on the BI reference scale is to create the BI reference swatches. […] Fabric swatches for this test are white knit polycotton (4 inch×4 inch) swatches from EMC ordered as PC 50/50. The supplier is instructed to strip the swatches first, stripping involves washing twice with a fragrance-free detergent and rinsing three times.
The BI scale contains one clean swatch with no malodor applied. […] These solutions are pipetted to the middle of the swatches. […] After drying for 30 minutes in a vented hood, the swatches are wrapped in aluminum foil to prevent odor contamination to the treated swatch. A clean untreated swatch is also included as the lowest anchor point of reference for malodor strength on the BI scale. The BI reference scale swatches should be used within 0.5 to 12 hours and discarded after 12 hours. The swatches are used as scale anchor points when graders evaluate a test sample(s) and are assigned a Blocker Index (BI) as show in Table 12.
The perfumer/expert grader is asked to rank order swatches according to a scale between 0 and 3.
The reference swatches represent the 0, 1, 2, and 3 BIs on the BI reference scale, Table 12. The expert grader should familiarizes him/herself with the strength of the odor on the BI reference swatches by sniffing each one starting at 0 (the lowest odor strength) and ending at 3 (the highest odor strength). This should be done prior to evaluating the swatch treated with the test material.
To evaluate the BI, the test material is applied to a malodorous swatch to determine how well the test material blocks the malodor. […] After drying the malodorous swatch a known concentration of test material solution, between 1 ppm and 100 ppm is pipetted onto the malodorous swatch. […] It is sometimes necessary to evaluate several levels of the test material between about 1 and about 100 ppm to determine the BI.
At least two perfumers/expert graders are used to assign the BI to the test sample. […] The test sample swatch is assigned a BI at or between numbers on the BI in table.

Setting [1] is: Conc 10 ppm test material on isovaleric acid swatch.
Where [2] appears, read: Conc 50 ppm test material on isovaleric acid swatch.

`CC1CCC2(C(C)C)CC(C)OC2C1` (stereo not drawn) [4,8-dimethyl-1-(methylethyl)-7-oxybiciclo[4.3.0]nonane]: the BI runs as follows: under setting [1], 2.0; under setting [2], 2.2.

`CCC(=O)OC1CC2C3C=CCC3C1C2(C)C` (stereo not drawn) [8,8-dimethyl-3a,4,5,6,7,7a-hexahydro-1H-4,7-methanoinden-6-yl propionate]: the BI by setting is: under setting [1], 1.5; under setting [2], 2.2.

As for `CC1(C)CCc2ccc(CCC=O)cc21` [Material 261, 3-(3,3-dimethyl-2,3-dihydro-1H-inden-5-yl)propanal], the BI by setting is: (Conc 10 ppm test material on isovaleric acid swatch, listed as 1H-Indene-5-propanal, 2,3-dihydro-3 ,3-dimethyl-) 1.5; (Conc 50 ppm test material on isovaleric acid swatch, listed as 1H-Indene-5-propanal, 2,3-dihydro-3 ,3-dimethyl-) 2.7.

Source of the values: US20170137753A1, “DELIVERY SYSTEMS COMPRISING MALODOR REDUCTION COMPOSITIONS” (The Procter & Gamble Company, priority 2014, published 2017).
